Assay results as given in ChEMBL document CHEMBL1201862, “PubChem BioAssay data set” (2004).
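Cultured in 96-well plates, cells were exposed to test compound for 48 hours across five concentrations. Abbreviation: GI50, concentration required for 50% inhibition of growth.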 Calls of active or inactive are those of the source. Cut-off read from the data, not from the text of the source: active = GI50 up to about 1.1 µM and inactive = higher.

Key:
Assay in all cases: NCI-60 cell line screen, 48 h
SNB-75 = system: SNB-75
HOP-62 = system: HOP-62
SK-OV-3 = system: SK-OV-3
K562 = system: K562
CCRF-CEM = system: CCRF-CEM
SNB-19 = system: SNB-19
RXF 393 = system: RXF 393
IGROV-1 = system: IGROV-1
SK-MEL-28 = system: SK-MEL-28
HCT-116 = system: HCT-116
Hs-578T = system: Hs-578T
HCT-15 = system: HCT-15
COLO 205 = system: COLO 205
Malme-3M = system: Malme-3M
EKVX = system: EKVX
BT-549 = system: BT-549
RPMI-8226 = system: RPMI-8226
OVCAR-5 = system: OVCAR-5
NCI-H522 = system: NCI-H522

| SMILES | GI50 (SNB-75) | GI50 (HOP-62) | GI50 (SK-OV-3) | GI50 (K562) | GI50 (CCRF-CEM) | GI50 (SNB-19) | GI50 (RXF 393) | GI50 (IGROV-1) | GI50 (SK-MEL-28) | GI50 (HCT-116) | GI50 (Hs-578T) | GI50 (HCT-15) [µM] | GI50 (COLO 205) | GI50 (Malme-3M) | GI50 (EKVX) | GI50 (BT-549) | GI50 (RPMI-8226) | GI50 (OVCAR-5) | GI50 (NCI-H522) |
| --- | --- | --- | --- | --- | --- | --- | --- | --- | --- | --- | --- | --- | --- | --- | --- | --- | --- | --- | --- |
| Cc1nc2c(o1)C(=O)c1ccccc1/C2=N/c1ccccn1 | 4.57 µM (inactive) | 18.4 µM (inactive) | > 100 µM (inactive) | 29.8 µM (inactive) | 18.5 µM (inactive) | 14.8 µM (inactive) | > 100 µM (inactive) | 22.6 µM (inactive) | 18.8 µM (inactive) | 20.4 µM (inactive) | 14.8 µM (inactive) | 14 | 35.6 µM (inactive) | 12.5 µM (inactive) | 17.7 µM (inactive) | 18.3 µM (inactive) | 17.4 µM (inactive) | 17.9 µM (inactive) | 19 µM (inactive) |
| CC1(C)C(c2ccccc2)=[N+]([O-])C(C)(C)N1O | > 10 µM (inactive) | > 10 µM (inactive) | > 10 µM (inactive) | – | > 10 µM (inactive) | > 10 µM (inactive) | > 10 µM (inactive) | > 10 µM (inactive) | > 10 µM (inactive) | > 10 µM (inactive) | > 10 µM (inactive) | > 10 | > 10 µM (inactive) | > 10 µM (inactive) | > 10 µM (inactive) | > 10 µM (inactive) | > 10 µM (inactive) | > 10 µM (inactive) | > 10 µM (inactive) |
| CCOC(=O)Cc1ccc(Nc2nc3cc(F)c(F)cc3nc2C(=O)OCC)cc1 | 81.8 µM (inactive) | > 100 µM (inactive) | > 100 µM (inactive) | 35.7 µM (inactive) | 42.8 µM (inactive) | 48.2 µM (inactive) | 33.9 µM (inactive) | 28.7 µM (inactive) | 64 µM (inactive) | 71.9 µM (inactive) | 64.7 µM (inactive) | 21.8 | 37.2 µM (inactive) | > 100 µM (inactive) | 22.8 µM (inactive) | 55.6 µM (inactive) | 39.1 µM (inactive) | > 100 µM (inactive) | 9.18 µM (inactive) |
| CC1C2CC(CC23OCC(CCl)O3)C1(C)C (stereo not given) | > 100 µM (inactive) | > 100 µM (inactive) | > 100 µM (inactive) | > 100 µM (inactive) | > 100 µM (inactive) | > 100 µM (inactive) | > 100 µM (inactive) | > 100 µM (inactive) | > 100 µM (inactive) | > 100 µM (inactive) | > 100 µM (inactive) | > 100 | > 100 µM (inactive) | > 100 µM (inactive) | > 100 µM (inactive) | > 100 µM (inactive) | > 100 µM (inactive) | – | > 100 µM (inactive) |
| COCOc1c(C(OCOC)c2cnc(Sc3ccccc3)n2C)ccc(OC)c1OC (stereo not given) | 35.3 µM (inactive) | > 100 µM (inactive) | > 100 µM (inactive) | > 100 µM (inactive) | > 100 µM (inactive) | > 100 µM (inactive) | 83.4 µM (inactive) | > 100 µM (inactive) | > 100 µM (inactive) | > 100 µM (inactive) | 94.4 µM (inactive) | > 100 | – | > 100 µM (inactive) | > 100 µM (inactive) | > 100 µM (inactive) | 65 µM (inactive) | > 100 µM (inactive) | 90.8 µM (inactive) |
| COc1ccc(-c2c3ccccc3c(-c3ccc(OCCBr)cc3)c3ccccc23)cc1 | 43.9 µM (inactive) | > 100 µM (inactive) | > 100 µM (inactive) | – | > 100 µM (inactive) | > 100 µM (inactive) | > 100 µM (inactive) | > 100 µM (inactive) | > 100 µM (inactive) | > 100 µM (inactive) | > 100 µM (inactive) | > 100 | > 100 µM (inactive) | > 100 µM (inactive) | > 100 µM (inactive) | > 100 µM (inactive) | > 100 µM (inactive) | > 100 µM (inactive) | > 100 µM (inactive) |
